The values that follow come from US20100113390A1, “OLIGOSACCHARIDES DERIVED FROM FUCOIDAN” (SUNTORY HOLDINGS LIMITED, priority 2007, published 2010).

Assay [1] deals with T1, porcine pancreatic lipase (Sus scrofa, UniProt P00591).
T1 construct: purchased SIGMA
T1 sequence (P00591 1-450): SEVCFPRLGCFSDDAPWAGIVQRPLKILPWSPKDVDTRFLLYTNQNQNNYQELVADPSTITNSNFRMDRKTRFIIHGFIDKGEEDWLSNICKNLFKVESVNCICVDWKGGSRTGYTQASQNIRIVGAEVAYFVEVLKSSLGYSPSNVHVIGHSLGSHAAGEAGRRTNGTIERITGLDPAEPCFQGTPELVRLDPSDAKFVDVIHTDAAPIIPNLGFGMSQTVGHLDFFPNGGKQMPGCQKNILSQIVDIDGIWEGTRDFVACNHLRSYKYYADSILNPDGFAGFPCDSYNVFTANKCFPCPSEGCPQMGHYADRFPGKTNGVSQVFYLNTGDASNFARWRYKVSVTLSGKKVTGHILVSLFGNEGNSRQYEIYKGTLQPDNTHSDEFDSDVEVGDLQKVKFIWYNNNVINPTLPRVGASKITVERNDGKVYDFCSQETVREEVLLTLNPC
Kind of assay: Measurement of lipase inhibitory activity (4-methylumbelliferone oleic acid ester, fluorescence). It is filed as biochemical. As to conditions: at 4 mg/ml final concentration, FIG. 30. As for the experimental part:
1. In a 96-well flat-bottomed plate, GF (I) prepared in Example 3, as well as the GSFaF (VII)-containing fraction and the GSF fraction containing (V) and GSFF (VI) prepared in Example 4 were each adjusted to give a final concentration of 4 mg/ml (25 μl), followed by addition of 50 μl buffer (130 mM Tris-HCl buffer (pH 8.0, containing 150 mM NaCl and 1.36 mM CaCl2)) and 25 μl 4-methylumbelliferone oleic acid ester (SIGMA, final concentration: 100 μM). The plate was allowed to stand for 30 minutes at room temperature. Then, lipase (porcine pancreatic lipase, SIGMA) was added in a volume of 50 μl (final concentration: 100 U/ml) to initiate the reaction. 2. After 30 minutes, 100 μl citrate buffer (pH 4.2) was added to stop the reaction. The fluorescence intensity of 4-methylumbelliferone generated by the reaction (excitation wavelength: 355 nm, fluorescence wavelength: 460 nm) was measured with a fluorescence plate reader (Fluoroskan Asent CF, Labsystems). 3. As a control, water was used in place of the samples. As a blank, water was used in place of the samples and buffer was used in place of lipase. The following equation was used to calculate lipase inhibitory activity. 4. Calculation equation
Lipase inhibitory activity (%)=100−(A−B)/(C−B)×100
A: fluorescence intensity in sample, B: fluorescence intensity in blank, C: fluorescence intensity in control

Assay [2] deals with α-glucosidase. Put plainly: Measurement of α-glucosidase activity (p-nitrophenyl-α-D-glucopyranoside substrate, A405 nm). As to conditions: for α-glucosidase inhibitory activity (% inhibition): at 5 mg/ml (samples adjusted to 50 mg/ml H2O), duplicate, FIG. 29. It is filed as biochemical, yeast. As for the experimental part:
1. 0.1 M sodium phosphate buffer (a mixture of 0.1 M NaH2PO4.2H2O and 0.1 M Na2HPO4.12H2O, adjusted to pH 7.0) was supplemented with 2 g/L bovine serum albumin (a product of Nacalai Tesque, Inc., Japan, F-V, pH 5.2, purity: 96%) and 0.2 g/L NaN3 (a product of Nacalai Tesque, Inc., Japan, reagent grade). As an enzyme solution, α-glucosidase (a product of Wako Pure Chemical Industries, Ltd., Japan, derived from yeast, 100 units/mg) was dissolved in the above buffer at 0.5 units/mg protein/ml (100 μg/20 ml). As a substrate solution, p-nitrophenyl-α-D-glucopyranoside (a product of Nacalai Tesque, Inc., Japan, reagent grade) was dissolved in the above buffer at 5 mM (7.525 mg/5 ml). 2. For use as samples, GF (I) purified in Example 3 was adjusted to 200 mg/ml H2O and diluted two-fold to give 6 dilutions. Using a 96-well microplate, the enzyme solution (45 μL) was added to each of the sample solutions (10 μL) and pre-incubated at 37° C. for 5 minutes. After addition of the substrate solution (45 μL), each sample was measured for absorbance A405 nm (A405 nm at 0 min) and, after incubation at 37° C. for 5 minutes, was then measured for absorbance A405 nm (A405 nm at 5 min). As a control, H2O was added in place of the samples and measured for absorbance. The difference in A405 nm from the control was calculated as % inhibition. Activity measurement was made in quadruplicate. 3. […] As comparative samples, X2 (xylobiose) and glucuronic acid (Sigma-Aldrich) were neutralized with NaOH and adjusted to 50 mg/ml H2O (calculated based on the amount of glucuronic acid). […] After addition of the substrate solution (45 μl), each of the samples was measured for absorbance A405 nm (A405 nm at 0 min) and, after incubation at 37° C. for 5 minutes, was then measured for absorbance A405 nm (A405 nm at 5 min). As a control, H2O was added in place of the samples, and the difference in A405 nm from the control was calculated as % inhibition. […]

Take `CC1OC(O)C(OC2OC(C(=O)O)C(O)C(O)C2O)C(O)C1O` [GF (I), α-D-GlcA-(1→2)-L-Fuc]: the inhibition at 4000 µg/mL in assay [1] worked out at 81%. The “α-glucosidase IC50” value in assay [2] (GF (I) purified in Example 3, 6 two-fold dilutions, quadruplicate) came out at 20.4 mg/mL.
On to `OC1OC[C@@H](O[C@@H]2OC[C@@H](O)[C@H](O)[C@H]2O)[C@H](O)[C@H]1O` (stereo partly shown) [X2, xylobiose], for which, in assay [2], the “α-glucosidase inhibitory activity (% inhibition)” value is listed as 10.15%.
Consider `O=C(O)[C@H]1OC(O)[C@H](O)[C@@H](O)[C@@H]1O` (stereo partly shown) [glucuronic acid], for which the “α-glucosidase inhibitory activity (% inhibition)” value in assay [2] worked out at 8%.
